Literature values, collected in US5468499A, “Liposomes containing the salt of phosphoramide mustard and related compounds” (Ohio State University, priority 1993, dated 1995).

System: tumor

Which “tumoricidal activity of the drug itself” value does the source give for `O=P1(N(CCCl)CCCl)NCCCO1` (stereo not shown) [cyclophosphamide] here?
Its value is “not directly tumoricidal”.
